The values below come from patent US8349854B2, “Salts of 4-aniline quinazoline derivative” (priority 2007, dated 2013).

Like-named read-outs stand apart in the source and are kept apart here.

The nature of series [1]: Drug absorption in SD rat, intragastric administration (ig). Format: in vivo. The settings on record: male, plasma, po. Here is the method:
The blood samples were collected 0.5, 1.0, 1.5, 2.0, 3.0, 5.0, 7.0, 9.0, 12 and 24 hours after administration, which were then centrifugated respectively to obtain the plasma. The concentration of the drug in the plasma was determined by means of liquid chromatography/tandem mass spectrometer, and the concentration-time curve was obtained.

The test system of series [2] is human epidermoid squamous cancer cells A431. The settings on record: from PCT/CN2006/002786, result in words; cited from earlier work.
Series [3] can be described thus: Solubility test in water and in methanol at room temperature. Format: physicochemical. To be noted: thermodynamic from solid. Here is the method:
According to the conventional method for determining the solubility, at the room temperature, a suitable amount of the compound to be tested was placed in 15 mL of water. Then the compound was dissolved by sufficient stir. The solution is placed at room temperature for 3 hours. Then 10 ml of the clear saturated supernatant was transferred into the weighing bottle with the pipette. The solvent was evaporated by heating, and the residue was dried and weighed to obtain the mass of the residue, which was the mass of the solute. After calculation, the solubility of the compound of formula (I) and the salts thereof in water can be obtained. The solubility of the compound to be tested in methanol was determined along the same lines.

The target in the next series is Erb-B2 (Homo sapiens, UniProt P04626). To be noted: in vitro; from PCT/CN2006/002786, result in words; cited from earlier work.
The subject of series [4] is human mammary cancer cells BT-474. To be noted: from PCT/CN2006/002786, result in words; cited from earlier work.
Series [5] has as its system human epidermoid squamous cancer cells A431. The settings on record: from PCT/CN2006/002786, result in words; cited from earlier work. The source holds these as a separate data set.

Chain of Erb-B2 (P04626 23-1255, species assumed): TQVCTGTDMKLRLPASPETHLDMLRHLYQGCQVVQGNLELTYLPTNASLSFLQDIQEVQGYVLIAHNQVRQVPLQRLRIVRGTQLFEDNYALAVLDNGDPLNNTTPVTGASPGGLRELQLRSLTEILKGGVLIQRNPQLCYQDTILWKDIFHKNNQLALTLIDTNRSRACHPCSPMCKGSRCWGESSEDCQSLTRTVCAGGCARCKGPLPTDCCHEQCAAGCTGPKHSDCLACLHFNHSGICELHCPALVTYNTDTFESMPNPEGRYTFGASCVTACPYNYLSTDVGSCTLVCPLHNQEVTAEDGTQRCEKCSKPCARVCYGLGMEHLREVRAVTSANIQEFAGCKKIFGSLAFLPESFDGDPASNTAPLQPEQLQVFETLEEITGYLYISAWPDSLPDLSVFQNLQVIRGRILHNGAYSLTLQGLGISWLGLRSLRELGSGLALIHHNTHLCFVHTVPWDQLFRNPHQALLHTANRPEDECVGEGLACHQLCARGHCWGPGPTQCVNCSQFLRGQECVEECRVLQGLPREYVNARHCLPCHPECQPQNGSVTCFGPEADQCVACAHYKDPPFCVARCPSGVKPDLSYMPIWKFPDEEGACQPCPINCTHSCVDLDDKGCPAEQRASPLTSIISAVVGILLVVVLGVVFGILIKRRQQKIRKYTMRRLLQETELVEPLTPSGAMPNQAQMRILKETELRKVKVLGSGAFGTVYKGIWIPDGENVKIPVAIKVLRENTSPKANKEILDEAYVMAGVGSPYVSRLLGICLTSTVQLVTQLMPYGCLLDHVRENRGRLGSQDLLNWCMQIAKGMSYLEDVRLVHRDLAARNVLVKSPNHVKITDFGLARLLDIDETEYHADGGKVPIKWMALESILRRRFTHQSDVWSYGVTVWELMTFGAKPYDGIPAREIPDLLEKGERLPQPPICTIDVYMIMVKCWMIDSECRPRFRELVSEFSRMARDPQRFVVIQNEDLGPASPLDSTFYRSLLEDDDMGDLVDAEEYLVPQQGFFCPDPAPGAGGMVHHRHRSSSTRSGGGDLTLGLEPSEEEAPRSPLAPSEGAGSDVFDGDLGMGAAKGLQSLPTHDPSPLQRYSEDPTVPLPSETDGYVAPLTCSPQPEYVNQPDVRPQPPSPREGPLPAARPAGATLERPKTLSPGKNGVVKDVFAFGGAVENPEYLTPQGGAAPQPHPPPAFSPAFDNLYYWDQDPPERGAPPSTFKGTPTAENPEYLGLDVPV

Take `C=CC(=O)Nc1ccc2ncnc(Nc3ccc(OCc4cccc(F)c4)c(Cl)c3)c2c1` [Compound of formula (I), N-{4-[3-chloro-4-(3-fluoro-benzyloxy)phenylamino]quinazolin-6-yl}-acrylamide]: the half-life in series [1] (SD, rat, 30 mg/kg) is 1.81 h. Further, the AUC0-t in series [1] (SD, rat, 30 mg/kg, read-out: AUC0-t) was determined as 106 ng·h/mL. In series [1] (SD, rat, 30 mg/kg, read-out: Cmax), the Cmax was found to be 32 ng/mL. In addition, the Tmax in series [1] (SD, rat, 30 mg/kg, read-out: Tmax) is 0.75 h. The bioavailability in series [1] (21.68 mg/kg, SD rat, revised by dosage, calculated by AUC0-t, read-out: absolute bioavailability by ig) was 0.95%. In addition, the “inhibitory activity of human epidermoid squamous cancer cells A431” value in series [2] is on record as “relatively good inhibitory activity”. Also, the solubility at 3 h is below 1000 µg/mL in series [3] (organic solvent or mixture, methanol, read-out: Solubility in methanol(/mL)) and below 0.01 µg/mL in series [3] (water, read-out: Solubility in water(/mL)). The “inhibitory activity against Erb-B2” value at Erb-B2 is on record as “excellent inhibitory activity”. In addition, the “inhibitory activity of human mammary cancer cells BT-474” value in series [4] is given as “relatively good inhibitory activity”. Besides, the “anti-tumor effect on A431 transplanted to a nude rat” value in series [5] is given as “conspicuous anti-tumor effect”.

As usually defined, the half-life is how long it takes for the measured level to halve. Higher therefore signals slow loss. For orientation: Cmax means the highest concentration seen after dosing. The term Tmax denotes the time from dosing to the highest level. As usually defined, the bioavailability is the share of a dose that reaches the circulation, judged against a reference dose that is usually intravenous.
